From EP4417607A1, “HETEROCYCLIC COMPOUND AS SOS1 INHIBITOR AND USES THEREOF” (Nanjing Zaiming Pharmaceutical Co., Ltd., priority 2021, dated 2023)
Blank lines part the entries; values can stand above or below the compound they belong to.

Tested on: p-ERK pathway in H358 cells
Assay: p-ERK pathway inhibition in H358 cells (Advanced phospho-ERK (Thr202/Tyr204) cellular kit, HTRF)
Type: cell-based
Details: Homo sapiens, NCI-H358, 1 h compound incubation
Method: The effect of the compounds of the present invention on H358 cell p-ERK pathway was assessed by Advanced phospho-ERK (Thr202/Tyr204) cellular kit method.
The experimental procedures were summarized as follows: H358 cells (ATCC, CRL-5807) were cultured in RPMI1640 (ThermoFisher, A1049101) complete medium containing 10% FBS (Gibco, 10100147) and 100 U/mL penicillin-streptomycin mixed solution (Gibco, 15140163). When the coverage of the cells in the culture vessel reached 80-90%, the cells were pipetted and seeded in a 96-well plate (Corning, 3599) at 50000 cells/well (90 µL RPMI1640 complete medium), and the plate was left to stand for 5 min, cultured in an incubator at 37 °C with 5% CO2 for 6 h, replaced with a serum-free RPMI1640, and starved overnight.
After incubation overnight, 10 µL of a diluted test compound was added to each well using a multi-channel pipette, and the 96-well plate was cultured in an incubator at 37 °C with 5% CO2 for 1 h. The supernatant was poured. The cells were washed once with PBS. 50 µL of a lysis buffer (Advanced phospho-ERK (Thr202/Tyr204) cellular kit, 64AERPEH) was added to each well. The plate was shaken at room temperature at 450 rpm for 1 h. After the cells were completely lysed, 16 µL of the supernatant was added to a 384-well plate (PE, 6007299), mixed energy donor Eu and energy acceptor D2 (D2/Eu = 1:1) were added, and the plate was incubated at room temperature for 4 h. HTRF on the microplate reader was selected for plate reading, Ratio = Signal 665 nm/Signal 620 nm × 10^4. In this experiment, the cell-free group (replaced with 1640 medium) was used as the 100% inhibition group, and the compound-free group in which the cell was added was used as the 0% inhibition group.
The inhibition percentage of H358 cell p-ERK pathway by the compounds of the present invention could be calculated by the following formula: [formula]
IC50 values of the compounds were calculated from 8 concentration points using XLfit (ID Business Solutions Ltd., UK) software by the following formula: Y = Bottom + (Top−Bottom)/(1+10^(∧)((logIC50−X)×slopefactor)) [formula]
Y is the inhibition percentage, X is the logarithmic value of the concentration of the test compound, Bottom is the minimum inhibition percentage, Top is the maximum inhibition percentage, and slope factor is the slope coefficient of the curve. The default fitted curve was used to fit the slope of the S-shaped curve to determine the IC50 value. Table 2. Results of p-ERK inhibition test by the compounds of the present invention

Structure (SMILES): COc1c(=O)n(N2CCOCC2)cc2c(N[C@H](C)c3cccc([N+](=O)[O-])c3C)nc(C)nc12 [Example 24, (R)-4-((1-(2-methyl-3-nitrophenyl)ethyl)amino)-8-methoxy-2-methyl-6-morpholinepyrido[4,3-d]pyrimidine-7(6H)-one]
IC50: 70.4 nM

Structure (SMILES): Cc1nc(N[C@H](C)c2cccc(S(F)(F)(F)(F)F)c2)c2cn(N3CCOCC3)c(=O)cc2n1 [Example 18, (R)-2-methyl-6-morpholine-4-((1-(3-(pentafluoro-λ^6-sulfanyl)phenyl)ethyl)amino) pyrido[4,3-d]pyrimidine-7(6H)-one]
IC50: 79.8 nM

Structure (SMILES): Cc1nc(N[C@H](C)c2cccc(C(F)F)c2F)c2cn(C3(CF)CC3)c(=O)c(NC[C@@H]3CCO3)c2n1 [Example 105, 4-(((R)-1-(3-(difluoromethyl)-2-fluorophenyl)ethyl)amino)-6-(1-(fluoromethyl)cyclopropyl)-2-methyl-8-((((S)-oxetan-2-yl)methyl)amino)pyrido[4,3-d]pyrimidine-7(6H)-one]
IC50: 98.4 nM

Structure (SMILES): Cc1nc(N[C@H](C)c2cccc(C#N)c2C)c2cn(N3CCOCC3)c(=O)c(N3CCN4C(=O)OC[C@H]4C3)c2n1 [Example 99, 2-methyl-3-((R)-1-((2-methyl-6-morpholine-7-oxo-8-((R)-3-oxotetrahydro-3H-oxazolo[3,4-a]pyrazin-7(1H)-yl)-6,7-dihydropyrido[4,3-d]pyrimidin-4-yl)amino)ethyl)benzonitrile]
IC50: 112 nM

Structure (SMILES): COC1(c2c(=O)n(C3(CF)CC3)cc3c(N[C@H](C)c4cccc(C(F)F)c4F)nc(C)nc23)CCOC1 (stereo partly drawn) [Example 140, 4-(((R)-1-(3-(difluoromethyl)-2-fluorophenyl)ethyl)amino)-6-(1-(fluoromethyl)cyclopropyl)-8-(3-methoxytetrahydrofuran-3-yl)-2-methylpyrido[4,3-d]pyrimidine-7(6H)-one]
IC50: 131 nM

Structure (SMILES): Cc1nc(N[C@H](C)c2cccc(C(F)F)c2F)c2cn(C3(CF)CC3)c(=O)c(-c3cnn4c3CCC4)c2n1 [Example 170]
IC50: 138 nM

Structure (SMILES): COc1c(=O)n(C2(CF)CCN(C(C)=O)C2)cc2c(N[C@H](C)c3cccc(C#N)c3C)nc(C)nc12 (stereo partly drawn) [Example 17, 3-((1R)-1-((6-(1-acetyl-3-(fluoromethyl)pyrrolidin-3-yl)-8-methoxy-2-methyl-7-oxo-6,7-dihydropyrido[4,3-d]pyrimidin-4-yl)amino)ethyl)-2-methylbenzonitrile]
IC50: 33.7 nM

Structure (SMILES): COc1c(=O)n(C2(CF)CCN(C(C)=O)C2)cc2c(N[C@H](C)c3cccc(C(F)F)c3F)nc(C)nc12 (stereo partly drawn) [Example 8, 6-(1-acetyl-3-(fluoromethyl)pyrrolidin-3-yl)-4-(((R)-1-(3-(difluoromethyl)-2-fluorophenyl)ethyl)amino)-8-methoxy-2-methylpyrido[4,3-d]pyrimidine-7(6H)-one]
IC50: 92.9 nM

Structure (SMILES): Cc1nc(N[C@H](C)c2cccc(C(F)F)c2F)c2cn(C3(CF)CC3)c(=O)c(-c3cnc4cnn(C)c4c3)c2n1 [Example 129, (R)-4-((1-(3-(difluoromethyl)-2-fluorophenyl)ethyl)amino)-6-(1-(fluoromethyl)cyclopropyl)-2-methyl-8-(1-methyl-1H-pyrazolo[4,3-b]pyridin-6-yl)pyrido[4,3-d]pyrimidine-7(6H)-one]
IC50: 127 nM

Structure (SMILES): CNc1c(=O)n(C2(CF)CC2)cc2c(N[C@H](C)c3cccc(C(F)F)c3F)nc(C)nc12 [Example 77]
IC50: 77.2 nM

Structure (SMILES): Cc1nc(N[C@H](C)c2cccc(C(F)F)c2F)c2cn(N3CCOCC3)c(=O)c(OCC3(C)COC3)c2n1 [Example 121, (R)-4-((1-(3-(difluoromethyl)-2-fluorophenyl)ethyl)amino)-2-methyl-8-((3-methloxetan-3-yl)methoxy)-6-morpholinylpyrido[4,3-d]pyrimidine-7(6H)-one]
IC50: 107 nM

Structure (SMILES): Cc1nc(N[C@H](C)c2cccc(C(F)F)c2F)c2cn(C3(CF)CC3)c(=O)c(Nc3cnn(C)c3)c2n1 [Example 93, (R)-4-((1-(3-(difluoromethyl)-2-fluorophenyl)ethyl)amino)-6-(1-(fluoromethyl)cyclopropyl)-2-methyl-8-((1-methyl-1H-pyrazol-4-yl)amino)pyrido[4,3-d]pyrimidine-7(6H)-one]
IC50: 90.3 nM

Structure (SMILES): Cc1nc(N[C@H](C)c2cccc(C(F)F)c2F)c2cn(N3CCOCC3)c(=O)c(N3CCO[C@@H](C)C3)c2n1 [Example 79]
IC50: 79.3 nM

Structure (SMILES): Cc1nc(N[C@H](C)c2cccc(C#N)c2C)c2cn(N3CCOCC3)c(=O)c(-c3ccnc(N4CCOCC4)c3)c2n1 [Example 163]
IC50: 43.9 nM

Structure (SMILES): Cc1nc(N[C@H](C)c2cccc(C(F)F)c2F)c2cn(C3(CF)CC3)c(=O)c(N3C4CCC3COC4)c2n1 [Example 44, 8-(3-oxa-8-azabicyclo[3.2.1]oct-8-yl)-4-(((R)-1-(3-(difluoromethyl)-2-fluorophenyl)ethyl)amino)-6-(1-(fluoromethyl)cyclopropyl)-2-methylpyrido[4,3-d]pyrimidine-7(6H)-one]
IC50: 131 nM

Structure (SMILES): Cc1nc(N[C@H](C)c2cccc(S(F)(F)(F)(F)F)c2)c2cn(N3CCOCC3)c(=O)c(N3CCOCC3)c2n1 [Example 81, (R)-2-methyl-6,8-dimorpholine-4-((1-(3-(pentafluoro-λ^6-sulfanyl)phenyl)ethyl)amino)pyrido[4,3-d]pyrimidine-7(6H)-one]
IC50: 77 nM

More lines, now with the values ahead:

IC50: 49.1 nM
Structure (SMILES): Cc1nc(N[C@H](C)c2cccc(C(F)F)c2F)c2cn(C3(CF)CC3)c(=O)c(N3CCN(CC#N)CC3)c2n1 [Example 134, (R)-2-(4-(4-((1-(3-(difluoromethyl)-2-fluorophenyl)ethyl)amino)-6-(1-(fluoromethyl)cyclopropyl)-2-methyl-7-oxo-6,7-dihydropyrido[4,3-d]pyrimidin-8-yl)piperazin-1-yl)acetonitrile]

IC50: 167 nM
Structure (SMILES): Cc1nc(N[C@H](C)c2cccc(C(F)F)c2F)c2cn(C3(CF)CC3)c(=O)c(N3CCOCC3=O)c2n1 [Example 172, (R)-4-(4-((1-(3-(difluoromethyl)-2-fluorophenyl)ethyl)amino)-6-(1-(fluoromethyl)cyclopropyl)-2-methyl-7-oxo-6,7-dihydropyrido[4,3-d]pyrimidin-8-yl)morpholine-3-one]

IC50: 110 nM
Structure (SMILES): Cc1nc(N[C@H](C)c2cccc(C(F)F)c2F)c2cn(C3(CF)CC3)c(=O)c(N3CC(S(C)(=O)=O)C3)c2n1 [Example 111, (R)-4-((1-(3-(difluoromethyl)-2-fluorophenyl)ethyl)amino)-6-(1-(fluoromethyl)cyclorol-2-methyl-8-3-methylsulfonylazetidin-1-yl)pyrido[4,3-d]pyrimidine-7(6H)-one]

IC50: 127 nM
Structure (SMILES): Cc1nc(N[C@H](C)c2cccc(C(F)F)c2F)c2cn(C3(CF)CC3)c(=O)c(C(F)(F)F)c2n1 [Example 2, (R)-4-((1-(3-(difluoromethyl)-2-fluorophenyl)ethyl)amino)-6-(1-(fluoromethyl)cyclopropyl)-2-methyl-8-(trifluoromethyl)pyrido[4,3-d]pyrimidine-7(6H)-one]

IC50: 46.9 nM
Structure (SMILES): Cc1nc(N[C@H](C)c2cccc(C(F)F)c2F)c2cn(C3(CF)CC3)c(=O)c(N3C[C@@H](F)[C@@H](F)C3)c2n1 [Example 107, 4-(((R)-1-(3-(difluoromethyl)-2-fluorophenyl)ethyl)amino)-8-((3S,4R)-3,4-difluoropyrrolidin-1-yl)-6-(1-(fluoromethyl)cyclopropyl)-2-methylpyrido[4,3-d]pyrimidine-7(6H)-one]

IC50: 176 nM
Structure (SMILES): Cc1nc(N[C@H](C)c2cccc(C(F)F)c2F)c2cn(C3(CF)CC3)c(=O)c(N3C[C@H]4C[C@@H]3CO4)c2n1 [Example 53, 8-((1R,4R)-2-oxa-5-azabicyclo[2.2.1]heptan-5-yl)-4-(((R)-1-(3-(difluoromethyl)-2-fluorophenyl)ethyl)amino)-6-(1-(fluoromethyl)cyclopropyl)-2-methylpyrido[4,3-d]pyrimidine-7(6H)-one]

IC50: 124 nM
Structure (SMILES): Cc1nc(N[C@H](C)c2cccc(C(F)F)c2F)c2cn(C3(CF)CC3)c(=O)c(N3C[C@H]4CC[C@@H](C3)O4)c2n1 [Example 54, 8-((1R,5S)-8-oxa-3-azabicyclo[3.2.1]octan-3-yl)-4-(((R)-1-(3-(difluoromethyl)-2-fluorophenyl)ethyl)amino)-6-(1-(fluoromethyl)cyclopropyl)-2-methylpyrido[4,3-d]pyrimidine-7(6H)-one]

IC50: 98.3 nM
Structure (SMILES): Cc1nc(N[C@H](C)c2cccc(C(F)F)c2F)c2cn(C3(CF)CC3)c(=O)c(N3CCC(C)(C#N)CC3)c2n1 [Example 173]

IC50: 121 nM
Structure (SMILES): Cc1nc(N[C@H](C)c2cccc(C(F)F)c2F)c2cn(C3(CF)CC3)c(=O)c(N3CCC(F)(F)CC3)c2n1 [Example 169]
